Data taken from patent US11633457B2, “Pharmaceutical compositions comprising oncostatin m (OSM) antagonist derivatives and methods of use” (Boise State University, priority 2019, dated 2023).

What was measured:
[1] = test system: STAT3, JNK, ERK, and AKT; details: earlier work (U.S. Ser. No. 15/403,965); cited from earlier work
[2] = test system: prostate tumor cell; details: earlier work (U.S. Ser. No. 15/403,965); cited from earlier work
[3] = test system: OSM induced secretion of IL-6; test: ELISA of OSM induced IL-6 secretion; type: cell-based; details: pretreatment with inhibitor; FIG. 5
Method: (§1) OSM-SMI-10B was also assayed for its effect on OSM induced secretions of both VEGF and IL-6 by ELISA (FIG. 5).

[4] = test system: OSM induced secretion of VEGF; test: ELISA of OSM induced VEGF secretion; type: cell-based; details: pretreatment with inhibitor; FIG. 5
Method: as §1

[5] = test system: OSM-induced phosphorylation of STAT3 on Tyr-705 (pSTAT3); test: ELISA of OSM-induced phosphorylation of STAT3 (pSTAT3) with inhibitor pretreatment; type: cell-based, human; details: for reduction in OSM induced phosphorylation of STAT3 (pSTAT3): 10, 50, and 100 μM per the method of Example 1, FIGS. 4A and 4B; for effect on OSM induced pSTAT3 phosphorylation, initial tests: OSM with or without inhibitor pretreatment, FIG. 3; for reduction of the OSM induced increase in pSTAT3 expression: initial testing, FIG. 6
Method: Therefore, the phosphyloration of various signaling pathways was assayed using an ELISA both with and without inhibitors and at various concentrations.
All human breast carcinoma cell lines used in this aim were purchased from the American Type Culture Collection (ATCC) or Caliper Life Sciences, and the growth of frozen cell aliquots will be initiated on a periodic basis to remove the possibility of cross-cell contamination. The cell lines were regularly tested for mycoplasma contamination by both DAPI staining and PCR. Four invasive ductal carcinoma cell lines, T47D, MCF7, MDA-MB-231 and MDA-MB-468, were used. These include the less aggressive, estrogen receptor-positive (ER+), progesterone receptor positive (PR+), HER2−, luminal T47D and MCF7-luc cell lines, as well as the triple negative breast cancer (TNBC) basal-like cell line, MDA-MB-231-LN-luc, that is metastatic in orthotopic xenografts and the less metastatic TNBC cell line MDA-MB-468. All cell lines express OSMRb, LIFRb, and gp130, as well as various levels of OSM, by RT-PCR
An enzyme-linked immunosorbent assay (ELISA) was used for analyzing initial OSM-induced phosphorylation of STAT3 on Tyr-705 (pSTAT3). T47D, MCF7, and MDA-MB-231 human breast cancer cells induced pSTAT3 upon stimulation with OSM (25 ng/ml) for 30 minutes. OSM-SMI-8 modified inhibitors were used to pretreat the cells in order to assay their ability to inhibit OSM-OSMR interactions. Pretreatment consisted of administering to the cells either 5, 10, 50, or 100 μM of the modified OSM-SMI-8 based inhibitor for 2 hours prior to administration of OSM.

Compound	reduction in OSM induced phosphorylation of STAT3 (pSTAT3) [5]	effect on OSM induced pSTAT3 phosphorylation, initial tests [5]	further results
O=C(O)/C(=C\C=C\c1ccccc1)c1coc(-c2nc(/C(=C/C=C/c3ccccc3)C(=O)O)co2)n1 [OSM-SMI-8]			inhibition of OSM induced phosphorylation of STAT3, JNK, ERK, and AKT [1]: shown to inhibit; inhibition of OSM induced prostate tumor cell detachment [2]: shown to inhibit
O=C(O)/C=C/c1cc(-c2ccc3c(c2)OCO3)c(-c2ccc3c(c2)OCO3)o1 [OSM-SMI-10B]	significant reduction in pSTAT3 at every treatment level	inhibitory effect	reduction in the OSM induction of IL-6 secretion [3]: large reduction; reduction in the OSM induction of VEGF secretion [4]: large reduction
O=C(/C=C/c1cc(-c2ccc3c(c2)OCO3)c(-c2ccc3c(c2)OCO3)o1)c1ccccc1 [OSM-SMI-10C]	significant reduction in pSTAT3 at every treatment level	inhibitory effect	
CCOC(=O)/C=C/c1cc(-c2ccc3c(c2)OCO3)c(-c2ccc3c(c2)OCO3)o1 [OSM-SMI-10D]		inhibitory effect	
C(=N\Nc1ccccc1)/c1cc(-c2ccc3c(c2)OCO3)c(-c2ccc3c(c2)OCO3)o1 [OSM-SMI-10E]	significant reduction in pSTAT3 at every treatment level	inhibitory effect	
O=C(NCc1ccccc1)c1cc(-c2ccc3c(c2)OCO3)c(-c2ccc3c(c2)OCO3)o1 [OSM-SMI-10J]		inhibitory effect	
O=[N+]([O-])c1c(/C=N/Nc2ccccc2)oc(-c2ccc3c(c2)OCO3)c1-c1ccc2c(c1)OCO2 [OSM-SMI-10]			inhibition of OSM induced phosphorylation of STAT3, JNK, ERK, and AKT [1]: shown to inhibit; inhibition of OSM induced prostate tumor cell detachment [2]: shown to inhibit
O=C(/C=C/c1ccccc1)c1cccc(N2C(=O)c3ccc(Oc4ccc5c(c4)C(=O)N(c4cccc(C(=O)/C=C/c6ccccc6)c4)C5=O)cc3C2=O)c1 [OSM-SMI-23]			reduction of the OSM induced increase in pSTAT3 expression [5]: more than about half
Cc1ccc(-c2cc(C(=O)Nc3cccc(C(=O)O)c3)c3cc(Br)ccc3n2)cc1C [OSM-SMI-26]			reduction of the OSM induced increase in pSTAT3 expression [5]: more than about half
